Measurements taken from paper PMC6199744, “Development of Chemical Proteomics for the Folateome and Analysis of the Kinetoplastid Folateome” (ACS Infectious Diseases, 2018).
Like-named read-outs stand apart in the source and are kept apart here.

Legend:
[1] = tested on: CHOLINE KINASE (TB427TMP.18.0017); experiment: Multitargeted bead mixture competition; assay type: binding, T. brucei; settings: for fold change vs vehicle control / fold change - vehicle control: protein TB427TMP.18.0017 CHOLINE KINASE; for fold change vs vehicle control: vehicle control = 1
DHFR-TS = DHFR-TS (Leishmania major, UniProt P07382); assay type: binding; settings: for fold change: LMJF.06.0860 DIH[…]-T[…], vehicle control = 1
[2] = biological target: inosine-5′-monophosphate dehydrogenase (Tb927.10.16120) (Trypanosoma brucei brucei, UniProt P50098); experiment: Multitargeted bead mixture competition; assay type: binding, T. brucei; settings: for fold change: protein TB927.10.16120 INOSINE-5'-MONOPHOSPHATE DEHYDROGENASE, vehicle control = 1
DHFR = biological target: T1, DHFR (Homo sapiens, UniProt P00374); experiment: Multitargeted bead mixture competition, HeLa cell extract; assay type: binding
T1 sequence (P00374 1-187): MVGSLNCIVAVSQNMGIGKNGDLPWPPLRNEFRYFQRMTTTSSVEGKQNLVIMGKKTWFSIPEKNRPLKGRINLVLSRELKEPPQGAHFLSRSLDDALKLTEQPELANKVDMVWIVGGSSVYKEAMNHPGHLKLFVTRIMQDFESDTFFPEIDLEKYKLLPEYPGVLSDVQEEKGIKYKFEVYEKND

[3] = biological target: T2, MTHF complex (DHCH protein in humans) (Homo sapiens, UniProt P11586); experiment: as above; assay type: binding
T2 sequence (P11586 1-935): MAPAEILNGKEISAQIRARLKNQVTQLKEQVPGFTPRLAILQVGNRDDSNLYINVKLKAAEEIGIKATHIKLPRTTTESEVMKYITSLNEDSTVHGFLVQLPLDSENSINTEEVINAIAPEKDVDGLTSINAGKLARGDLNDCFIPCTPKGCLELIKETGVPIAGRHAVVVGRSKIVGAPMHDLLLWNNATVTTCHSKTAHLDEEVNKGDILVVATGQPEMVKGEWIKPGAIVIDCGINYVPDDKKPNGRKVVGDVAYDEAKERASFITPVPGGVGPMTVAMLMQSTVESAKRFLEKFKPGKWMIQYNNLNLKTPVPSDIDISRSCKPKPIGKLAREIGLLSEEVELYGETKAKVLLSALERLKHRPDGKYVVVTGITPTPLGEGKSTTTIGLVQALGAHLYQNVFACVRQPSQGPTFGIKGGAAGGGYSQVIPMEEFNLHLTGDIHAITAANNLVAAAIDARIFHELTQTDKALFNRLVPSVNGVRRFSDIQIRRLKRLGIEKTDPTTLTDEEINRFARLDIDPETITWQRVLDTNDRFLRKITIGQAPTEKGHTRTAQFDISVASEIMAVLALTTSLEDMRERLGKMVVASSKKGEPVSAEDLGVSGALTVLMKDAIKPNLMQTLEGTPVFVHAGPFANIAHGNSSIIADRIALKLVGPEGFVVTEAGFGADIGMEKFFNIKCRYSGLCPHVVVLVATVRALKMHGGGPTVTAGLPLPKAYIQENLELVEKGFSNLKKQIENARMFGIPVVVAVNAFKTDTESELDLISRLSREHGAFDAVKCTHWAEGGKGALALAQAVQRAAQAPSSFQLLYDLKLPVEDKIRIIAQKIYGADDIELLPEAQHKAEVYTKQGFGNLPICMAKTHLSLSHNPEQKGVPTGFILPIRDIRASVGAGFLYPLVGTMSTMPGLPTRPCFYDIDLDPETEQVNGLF

methylene-THF-reductase = methylene-THF-reductase (Homo sapiens, UniProt P42898); experiment: as above; assay type: binding
[4] = protein LMJF.06.0860, DIH[…]-T[…]
[5] = HeLa, protein DHFR (SIMILAR TO DIHYDROFOLATE REDUCTASE ISOFORM 2, PARTIAL)
[6] = HeLa, captured protein MTHFD1 (105 KDA PROTEIN.)

| Structure (SMILES) | fold change vs vehicle control [1] | fold change relative to vehicle control (DHFR-TS; [4]) | fold change [2] | fold changes relative to vehicle control (DHFR; [5]) | fold changes relative to vehicle control [3, 6] | fold changes relative to vehicle control (methylene-THF-reductase; protein MTHFR, HeLa) | fold change - vehicle control [1] | fold change (DHFR-TS) | fold changes relative to vehicle control (DHFR; captured protein DHFR, HeLa) | fold changes relative to vehicle control ([3]; HeLa, protein MTHFD1) | fold changes relative to vehicle control (methylene-THF-reductase; captured protein MTHFR, HeLa) | other results |
| --- | --- | --- | --- | --- | --- | --- | --- | --- | --- | --- | --- | --- |
| Nc1nc2c(c(=O)[nH]1)N(C=O)C(CNc1ccc(C(=O)N[C@@H](CCC(=O)O)C(=O)O)cc1)CN2 (some centres unmarked) [LEU, leucovorin] | 0.95 | 1.39 | 1.11 | 2.72 | 0.61 | 0.52 |  |  |  |  |  |  |
| Nc1nc2[nH]cc(CCc3ccc(C(=O)N[C@@H](CCC(=O)O)C(=O)O)cc3)c2c(=O)[nH]1 [PTX, pemetrexed] | 0.98 |  | 0.49 |  |  |  |  |  |  |  |  | fold change relative to vehicle control (DHFR-TS): 1.08; binding to inosine-5′-monophosphate dehydrogenase (Tb927.10.16120) ([2]; bead mixture, T. brucei lysates): appeared to bind; binding to DHFR (DHFR): did not appear to bind DHFR; fold changes relative to vehicle control (DHFR): 1.09; fold changes relative to vehicle control [3]: 0.72; fold changes relative to vehicle control (methylene-THF-reductase): 0.47 |
| CCCCCCOc1ccc(Cc2cnc(N)nc2N)cc1 [compound 1] |  |  | 0.93 |  |  |  | 1.05 | 0.17 | 0.46 | 0.05 | 0.27 | competition for DHFR-TS (Figure 8a) (DHFR-TS; bead mixture, L. major lysate): competed for DHFR-TS; binding to DHFR (DHFR; bead mixture, HeLa cell extract): found to bind DHFR |
| CCCCCCOc1cccc(Cc2cnc(N)nc2N)c1 [compound 2] |  |  | 1.03 |  |  |  | 1.11 | 0.99 | 2.77 | 0.84 | 0.58 |  |
| Nc1nc2cccc(-c3ccccc3)c2n1Cc1ccc(Cl)c(Cl)c1 [compound 3] |  |  | 1 |  |  |  | 1 | 1.11 | 1.13 | 1.01 | 1.06 | percentage of competition from bead binding ([1]; multitargeted bead mixture, free ligand 100 μM, T. brucei lysate, TB427TMP.18.0017 CHOLINE KINASE): -1% |
| NCCOCCOCC(=O)Nc1nc2ncc(CNc3ccc(C(=O)NC(CCC(=O)O)C(=O)O)cc3)nc2c(=O)[nH]1 (centres unmarked) [compound 6] | 1.05 | 1.19 | 1 | 1.74 | 0.92 | 0.84 |  |  |  |  |  |  |
| NCCCNc1ccc(C(=O)NC(CCC(=O)O)C(=O)O)cc1 (centres unmarked) [compound 7] | 1.16 | 1.02 | 1.04 | 0.98 | 1 | 1 |  |  |  |  |  |  |
